Source: patent US4680382A, “Analogues of actinomycin D” (priority 1986, dated 1987)

Key:
[1] = molecular target: T1, NADPH cytochrome P-450 reductase (rat liver microsomes) (Rattus norvegicus, UniProt P00388); assay: Stimulation of NADPH oxidation in rat hepatic microsomal incubations; settings: for NADPH oxid: 340 nm, 37° C., phenobarbital induced microsomes, mean ± standard error of triplicate, basal 9.11 ± 0.30; for percentage stimulation of NADPH oxidation over basal rate: (drug-stimulated rate - basal rate)/basal rate × 100
T1 sequence (P00388 1-678): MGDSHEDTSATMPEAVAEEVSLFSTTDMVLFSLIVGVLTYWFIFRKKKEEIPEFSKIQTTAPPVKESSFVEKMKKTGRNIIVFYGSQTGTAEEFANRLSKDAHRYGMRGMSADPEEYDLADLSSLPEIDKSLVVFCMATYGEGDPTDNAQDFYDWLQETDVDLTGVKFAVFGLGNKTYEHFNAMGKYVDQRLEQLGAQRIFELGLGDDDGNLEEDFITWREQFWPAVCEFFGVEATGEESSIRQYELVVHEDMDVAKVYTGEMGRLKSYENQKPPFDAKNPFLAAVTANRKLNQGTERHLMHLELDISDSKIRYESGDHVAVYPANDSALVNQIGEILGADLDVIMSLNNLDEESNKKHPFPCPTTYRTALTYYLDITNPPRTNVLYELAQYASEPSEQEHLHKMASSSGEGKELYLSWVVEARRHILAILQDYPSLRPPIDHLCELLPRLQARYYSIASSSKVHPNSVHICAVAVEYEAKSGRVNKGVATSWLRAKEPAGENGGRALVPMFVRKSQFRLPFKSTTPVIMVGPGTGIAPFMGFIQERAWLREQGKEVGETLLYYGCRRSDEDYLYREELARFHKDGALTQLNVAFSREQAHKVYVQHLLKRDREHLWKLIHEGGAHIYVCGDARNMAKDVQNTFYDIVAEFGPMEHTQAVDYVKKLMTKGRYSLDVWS

[2] = system: rat hepatic microsomes; assay: Stimulation of adrenochrome formation (superoxide generation) in rat hepatic microsomal incubations; settings: for adrenochrome formation: 480 nm, 37° C., no more than 100 μM drug, basal 2.11 ± 0.11; for adrenochrome formation / percentage stimulation of adrenochrome formation over basal rate: no SOD
[3] = system: B16 melanoma; assay: In vivo antitumor activity against B16 melanoma; parameters: species or system BDF1 mice
Protocol: AMD-OZL analogues 9a and 10a were about as active as AMD and 7-hydroxy-AMD. The potencies of these analogues are reduced in comparison to that of AMD; their optimal doses were higher than that of AMD.
^a 0.2 mL of 1:5 (weight/volume) brei of B16 melanoma implanted
ip on day 0 in groups of nine BDF1 mice. Drugs administered ip.
^b MST (range) median survival time in days (range of individual
^c % ILS (surv), percent increase in lifespan (survivors on day

[4] = system: P388 cells; assay: Inhibition of DNA synthesis (methyl-[3H]thymidine incorporation) in P388 cells; type: cell-based, murine; settings: 50% reduction in 1 hr of methyl-[3H]thymidine incorporation, read-out: IC50 DNA synth
Protocol: (§1) Experiments for inhibition of nucleic acid synthesis in tumor cells in vitro were carried out with P388 tumor cells, details of which were reported by Sengupta et al, J. Med. Chem., 18, 1175 (1975). […] AMD-OZLs inhibit either process with equal activity and with the potency of its metabolite 7-hydroxy-AMD.
^c IC50 (DNA) = concentration of inhibitor in μM required to
cause 50% reduction (in 1 hr) in methyl[^3 H]thymidine incorporation
into acid precipitable material with use of P388 cells.

[5] = Maximum tolerated dose (LD10) in tumor-free BDF1 male mice; type: in vivo
Protocol: (§2) These analogues were also tested in tumor-free BDF1 male mice for determination of their MTD values (Table VIII). The animals (18-22 g) were given a broad range of doses of drugs in 5% dimethyl sulfoxide-saline on days 1, 5 and 9. Drugs were administered ip and the maximum tolerated doses of agents which caused death in only 10% of the tested animals in 21 days (i.e., LD10) were recorded as MTD. […] However, the MED values of 7-hydroxy-AMD and its precursor AMD-OZL 10a are high and are seven to tenfold of the MED values of 4a and 8a. On the basis of these MED values, the therapeutic indices of 8a and 4a are 70 and 96. The therapeutic index of 2a is 13, of 10a 10, and of AMD only 4.
^c MTD (maximum tolerated dose) is the lethal dose
(milligram/kilogram) for 10% normal BDF1 male mice (18-22 g); animal
calculated from a plot of logdose vs. percent mortality.

[6] = system: CCRF-CEM human lymphoblastic leukemic cells; assay: In vitro cytotoxicity against CCRF-CEM cells; type: cell-based; settings: 48 hr
Protocol: ^a Human lymphoblastic leukemic cells.
The analogues were tested for their cytotoxicity against tumor cells (time, 48 hr). […] This may be associated with the initial microsomal transformation of the "reverse" analogues to "symmetrical" analogue and/or other alternate bioactive forms (e.g., free-radicals, O2^-), followed by deactivation via formation of conjugates and facile elimination of these from the host. The "reverse" analogues show reduced toxicity in vivo and also the tritiated "reverse" 7a is metabolized in vitro.

[7] = system: P388 lymphocytic leukemia; assay: In vivo antitumor activity against P388 leukemia; parameters: species or system BDF1 mice
Protocol: The analogues were tested for their antitumor activities in P388 lymphocytic leukemia in male BDF1 mice. The tumor was implanted intraperitoneally (ip) with 10^6 cells. The drugs were also administered ip once daily on days 1, 5 and 9, beginning 1 day after tumor transplantation. Analogues were tested over a range of doses, but only the optimal nontoxic doses are listed.
^a 10^6 P388 cells implanted ip on day 0 into groups of eight
BDF1 male mice. Drugs administered ip. MST (range), median survival
time in days (range of individual animal deaths); % ILS, percent increase
in life span, calculated 100(T/C - 1), where T and C are median survival
times of treated and control animals; surv, number of surviving mice/tota

[8] = system: P388 cells; assay: Inhibition of RNA synthesis (2-[14C]uridine incorporation) in P388 cells; type: cell-based, murine
Protocol: as §1
^b IC50 (RNA) = concentration of inhibitor in μM required to
cause 50% reduction (in 1 hr) in 2[^14 C]uridine incorporation into
acid precipitable material with use of P388 cells.

[9] = system: P388 Leukemia; assay: Minimum effective dose and therapeutic index vs. P388 leukemia; type: in vivo; settings: dose giving 45% increase in life span in P388 tumor bearing mice; ip days 1, 5 and 9
Protocol: as §2
^a Drugs administered ip once on days 1, 5 and 9 starting 1 day after
tumor implantation. Determinations were made from analysis of plotted
^b MED (minimum effective dose) is the dose (milligram/kilogram)
providing an increase in life span of 45% over control in P388 tumor

[10] = system: liver microsomes; assay: EPR detection of free-radical intermediates with liver microsomes and NADPH (anaerobic); type: biochemical; settings: NADPH, potassium phosphate buffer
Protocol: No free-radical intermediates were detected in the absence of enzyme or substrates.
Melting points are determined on a Thomas-Hoover melting point apparatus at a heating rate of 2° C./min. Thin-layer chromatography was performed on silica gel plates (Brinkmann Instrument Inc.). Solvent systems were (A) EtOAc-acetone (4:1), (B) CHCl3 -MeOH (9:1) and (C) Cifferri, the organic phase of the mixture EtOAc-MeOH-H2 O (20:1:20). High-performance liquid chromatography was carried out on a Varian Model 5020 gradient liquid chromatograph equipped with a CD-111L chromatography data system and fitted with a Varian reversed-phase C18 column with the following solvent systems: I, CH3 CN-5 mM NH4 OAc buffer, pH 6.4 (68:32 isocratic), flow rate 1.5 mL/min; II, 65-95% water-methanol gradient for 70 min, 1 mL/min; III, 10-90% H2 O-MeOH gradient for 120 min, 1 mL/min, with UV-visible variable- and fixed-wavelength dual detectors at 254, 440, 470 and 520 nm. IR spectra were obtained on a Perkin-Elmer Model 237 Infra Cord with KBr micropellets or in chloroform solutions. UV-visible spectra were obtained on a Gilford 250 spectrophorometer, which, with the addition of a base-line reference compensator (Analog Multiplexer 5053) and thermoprogrammer, auto four cell programmer and thermoelectric cell holder 2577, were used to obtain thermal denaturation curves. Specific rotation values were determined in chloroform solutions with a Cary 60 spectropolarimeter. NMR spectra were obtained in a JEOL FQ-90 MHz spectrometer equipped with Fourier transform. EPR spectra analyses were recorded in a Varian E-9 EPR spectrometer. All elemental analyses were within ±0.4%.

Compound: CCN(CC)C(=O)c1c2nc3c(C(=O)N(CC)CC)ccc(C)c3oc-2c(C)c(=O)c1N [1b]
- NADPH oxid [1]: 8.9 ± 0.90 nmol min^-1 (mg of protein)^-1
- percentage stimulation of NADPH oxidation over basal rate [1]: -2%
- adrenochrome formation [2]: 2.13 ± 0.19 nmol min^-1 (mg of protein)^-1
- percentage stimulation of adrenochrome formation over basal rate [2]: +1%

Compound: Cc1c2oc3c(C)c(O)cc(C(=O)N[C@@H]4C(=O)N[C@H](C(C)C)C(=O)N5CCC[C@H]5C(=O)N(C)CC(=O)N(C)[C@@H](C(C)C)C(=O)O[C@@H]4C)c3nc-2c(C(=O)N[C@@H]2C(=O)N[C@H](C(C)C)C(=O)N3CCC[C@H]3C(=O)N(C)CC(=O)N(C)[C@@H](C(C)C)C(=O)O[C@@H]2C)c(N)c1=O [2a, 7-hydroxyactinomycin D, reference compound]
- % ILS ([3]; at optimal dose): 52%
- surv (survivors on day 65/total injected) ([3]; at optimal dose): 1/9
- MST (range) ([3]; at optimal dose, control 29 (20-48)): 44 (39-53) days
- optimal dose ([3]; ip, days 1, 5, 9): 1200 μg/kg per inj
- NADPH oxid [1]: 29.9 ± 1.91 nmol min^-1 (mg of protein)^-1
- percentage stimulation of NADPH oxidation over basal rate [1]: 228%
- IC50 [4]: 5.1 µM
- MTD (maximum tolerated dose) ([5]; lethal dose for 10% normal BDF1 male mice, 21 days (LD10), ip days 1, 5 and 9): 3.50 milligram/kilogram
- MTD as fold of the MTD of AMD ([5]; tumor-free BDF1 male mice): about 14 fold
- in vitro (CCRF-CEM) ID50 [6]: 1 µM
- surv (surviving mice/total mice at 60 days) ([7]; P388, at optimal dose): 0/8
- % ILS ([7]; P388, at optimal dose, 100(T/C - 1)): 136%
- MST (range) ([7]; P388, at optimal dose, control 11.0 (9-12)): 26.0 (19-39) days
- optimal dose ([7]; P388, ip, days 1, 5 and 9, optimal nontoxic dose): 1200.0 μg/kg per inj
- IC50 ([8]; 50% reduction in 1 hr of 2-[14C]uridine incorporation, read-out: IC50 RNA synth): 5.1 µM
- IC50 DNA/IC50 RNA ([8]; ratio): 1.00
- MED (minimum effective dose) [9]: 0.275 milligram/kilogram
- adrenochrome formation [2]: 7.29 ± 0.79 nmol min^-1 (mg of protein)^-1
- adrenochrome formation in presence of SOD ([2]; SOD (superoxide dismutase) 5 μg/mL added): inhibited
- percentage stimulation of adrenochrome formation over basal rate [2]: 245%

Compound: CCN(CC)C(=O)c1c2nc3c(C(=O)N(CC)CC)cc(O)c(C)c3oc-2c(C)c(=O)c1N [2b]
- NADPH oxid [1]: 8.9 ± 0.90 nmol min^-1 (mg of protein)^-1
- percentage stimulation of NADPH oxidation over basal rate [1]: -2%
- adrenochrome formation [2]: 2.13 ± 0.19 nmol min^-1 (mg of protein)^-1
- percentage stimulation of adrenochrome formation over basal rate [2]: +1%

Compound: CCN(CC)C(=O)c1c2nc3c(C(=O)N(CC)CC)c(N)c(O)c(C)c3oc-2c(C)c(=O)c1N [4b, 2,8-Diamino-1,9-bis(diethylcarbamoyl)-7-hydroxy-4,6-dimethyl-3-H-phenoxazine-3-one]
- free-radical intermediate detected by EPR [10]: no free-radical intermediates were detectable
- NADPH oxid [1]: 8.9 ± 0.90 nmol min^-1 (mg of protein)^-1
- percentage stimulation of NADPH oxidation over basal rate [1]: -2%
- adrenochrome formation [2]: 2.13 ± 0.19 nmol min^-1 (mg of protein)^-1
- percentage stimulation of adrenochrome formation over basal rate [2]: +1%
